# Experiments:
# [1] = system: Gs and Gi proteins; settings: cited from earlier work
# [2] = system: beta-arrestin1; test: Beta-arrestin 1 levels in rat brain areas after chronic antidepressant treatment (immunoblot); type: in vivo; settings: three weeks of treatment
# Protocol: On the 22nd day, rats were decapitated, blood collected and brain regions immediately dissected. Tissue homogenization was carried out in a glass-teflon homogenizer with ice-cold buffer containing 20 mM Tris.Cl pH 7.4, 2 mM EDTA, 1 mM DTT and antiprotease cocktail (Sigma). After initial centrifugation at 800 g for 5 min, the supernatant was collected and further centrifuged at 48,000 g for 30 min using a Beckman Ti80 rotor. The resulting supernatant and pellet were separated: the supernatant fraction was collected and centrifuged at 120,000 g for 45 min and the supernatant obtained was used for all measurements; the pellet was resuspended in the homogenization buffer and the pellet fraction obtained was used for all measurements.
# On the day of assay, cytosolic and/or membrane fraction were thawed. 10 μg total protein aliquots were taken for protein separation by SDS-(10%) polyacrylamide gel electrophoresis. The resulting proteins were transferred to nitrocellulose paper by use of electroblotting apparatus. Blots were blocked with 5% BSA for 1 hr in TBS containing 0.1% Tween-20 (TTBS) and incubated overnight with a monoclonal antibody to beta-arrestin1 (Transduction Labs, diluted 1:250). The immune bands were detected by subsequent incubation with anti-mouse IgG labeled with horseradishperoxidase using the Enhanced Chemiluminescence Western Blot Detection System (Amersham) followed by exposure to Kodak X-Omat film. […] Peak heights of immunoreactive bands presented as arbitrary absorbance units, were determined with a computer-assisted imaging system for semi-quantitative measurements. 10 μg rat cortical membranes run in each blot as a standard reference.
# Beta-arrestin1 levels were measured in three rat brain areas: cortex, hippocampus and striatum.
structure (smiles),measurement,setting,value
O=C(CCCN1CCC(O)(c2ccc(Cl)cc2)CC1)c1ccc(F)cc1 [haloperidol],Dopamine-induced Gs hyperfunction of untreated patients with schizophrenia,[1]; leukocytes of patients with schizophrenia,corrected
same,Gs level and function,"[1]; patients with schizophrenia, reduction correlated with intensity of Parkinsonian side effects",significant decrease in Gs level and function to below normal levels
CN(C)CCCN1c2ccccc2CCc2ccccc21 [imipramine],Cytosolic beta-arrestin-1 in rat cortex,"[2]; rat cortex, cytosolic fraction, 10 mg/kg twice daily intragastrically, compared with control group",165.6%
same,Membrane beta-arrestin 1 in rat cortex,"[2]; rat cortex, membrane fraction, 10 mg/kg twice daily intragastrically, compared with control group",156.8%
same,Cytosolic beta-arrestin-1 in rat hippocampus,"[2]; rat hippocampus, cytosolic fraction, 10 mg/kg twice daily intragastrically, compared with control group",179.2%
same,Beta-arrestin 1 levels in striatum,[2]; rat striatum,no alterations

# Reference: patent US7736621B2, “Methods for gauging the effect of a depression treatment by determining the levels of beta-arrestin 1 and G-protein coupled receptor kinase 2” (Hypatia Ltd., priority 2004, dated 2010)
